Laboratory results: ChEMBL document CHEMBL1201862, “PubChem BioAssay data set” (2004)
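Briefly, cells in 96-well plates were exposed to five compound concentrations for 48 h, and endpoints were estimated by linear interpolation. GI50: concentration for 50% inhibition of growth.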 Activity calls are given as the source filed them. Rule as the data show it: active = GI50 up to about 1.1 µM and inactive = higher.

What was measured:
Assay in all cases: NCI anticancer screen, dose series, 48 h
SR = tested on: SR
HOP-92 = tested on: HOP-92
OVCAR-5 = tested on: OVCAR-5
ACHN = tested on: ACHN
HL-60 = tested on: HL-60
M14 = tested on: M14
TK-10 = tested on: TK-10
Malme-3M = tested on: Malme-3M
U-251 = tested on: U-251
CCRF-CEM = tested on: CCRF-CEM
IGROV-1 = tested on: IGROV-1
SF-539 = tested on: SF-539
SK-MEL-28 = tested on: SK-MEL-28
UACC-62 = tested on: UACC-62
SF-268 = tested on: SF-268
OVCAR-3 = tested on: OVCAR-3
SW-620 = tested on: SW-620
SK-OV-3 = tested on: SK-OV-3

SMILES: C=Cc1cncc(C#N)c1CCc1c(C#N)cncc1C=C
- GI50 (SR): > 10 µM (inactive)
- GI50 (HOP-92): > 10 µM (inactive)
- GI50 (OVCAR-5): > 10 µM (inactive)
- GI50 (ACHN): > 10 µM (inactive)
- GI50 (HL-60): > 10 µM (inactive)
- GI50 (M14): > 10 µM (inactive)
- GI50 (TK-10): > 10 µM (inactive)
- GI50 (Malme-3M): > 10 µM (inactive)
- GI50 (U-251): > 10 µM (inactive)
- GI50 (CCRF-CEM): > 10 µM (inactive)
- GI50 (IGROV-1): > 10 µM (inactive)
- GI50 (SF-539): > 10 µM (inactive)
- GI50 (SK-MEL-28): > 10 µM (inactive)
- GI50 (UACC-62): > 10 µM (inactive)
- GI50 (SF-268): > 10 µM (inactive)
- GI50 (OVCAR-3): > 10 µM (inactive)
- GI50 (SW-620): > 10 µM (inactive)
- GI50 (SK-OV-3): > 10 µM (inactive)

SMILES: COc1cc2c(c(OC)c1OC)-c1ccc(SC)c(=O)cc1[C@@H](NC(=O)c1ccc([N+](=O)[O-])cc1)CC2
- GI50 (SR): 0.00522 µM (active)
- GI50 (HOP-92): < 0.0025 µM (active)
- GI50 (OVCAR-5): 0.00485 µM (active)
- GI50 (ACHN): 0.00555 µM (active)
- GI50 (HL-60): < 0.0025 µM (active)
- GI50 (M14): < 0.0025 µM (active)
- GI50 (TK-10): 3.13 µM (inactive)
- GI50 (Malme-3M): < 0.0025 µM (active)
- GI50 (U-251): 0.025 µM (active)
- GI50 (CCRF-CEM): < 0.0025 µM (active)
- GI50 (IGROV-1): 0.0126 µM (active)
- GI50 (SF-539): < 0.0025 µM (active)
- GI50 (SK-MEL-28): 4.45 µM (inactive)
- GI50 (UACC-62): 0.00853 µM (active)
- GI50 (SF-268): 0.0154 µM (active)
- GI50 (OVCAR-3): < 0.0025 µM (active)
- GI50 (SW-620): < 0.0025 µM (active)
- GI50 (SK-OV-3): < 0.0025 µM (active)

SMILES: Cc1cc(O)nc(NNC(C#N)c2ccc([N+](=O)[O-])cc2)n1 (centres undefined)
- GI50 (SR): 26.3 µM (inactive)
- GI50 (HOP-92): > 100 µM (inactive)
- GI50 (OVCAR-5): > 100 µM (inactive)
- GI50 (ACHN): 74.8 µM (inactive)
- GI50 (HL-60): 63.4 µM (inactive)
- GI50 (M14): > 100 µM (inactive)
- GI50 (TK-10): > 100 µM (inactive)
- GI50 (Malme-3M): 70.1 µM (inactive)
- GI50 (U-251): > 100 µM (inactive)
- GI50 (CCRF-CEM): > 100 µM (inactive)
- GI50 (IGROV-1): 76.9 µM (inactive)
- GI50 (SF-539): > 100 µM (inactive)
- GI50 (SK-MEL-28): > 100 µM (inactive)
- GI50 (UACC-62): > 100 µM (inactive)
- GI50 (SF-268): > 100 µM (inactive)
- GI50 (OVCAR-3): > 100 µM (inactive)
- GI50 (SW-620): 95.3 µM (inactive)
- GI50 (SK-OV-3): > 100 µM (inactive)

SMILES: CC(=O)C1(O)CCC2(O)C3(O)CC=C4CC(O)CCC4(C)C3CC(OC(=O)c3ccc(O)cc3)C12C.COC1CC(OC2C(C)OC(OC3C(C)OC(OC4CCC5(C)C(=CCC6(O)C5CC(OC(=O)c5ccc(O)cc5)C5(C)C(O)(C(C)=O)CCC65O)C4)CC3OC)CC2OC)OC(C)C1O (centres undefined)
- GI50 (SR): 25.8 µM (inactive)
- GI50 (HOP-92): 21.1 µM (inactive)
- GI50 (OVCAR-5): 87.5 µM (inactive)
- GI50 (ACHN): 30.1 µM (inactive)
- GI50 (HL-60): 20.7 µM (inactive)
- GI50 (TK-10): 60.8 µM (inactive)
- GI50 (Malme-3M): 25.1 µM (inactive)
- GI50 (U-251): 22.5 µM (inactive)
- GI50 (CCRF-CEM): 32.4 µM (inactive)
- GI50 (IGROV-1): 34.2 µM (inactive)
- GI50 (SF-539): 24.5 µM (inactive)
- GI50 (SK-MEL-28): 29 µM (inactive)
- GI50 (UACC-62): 23.4 µM (inactive)
- GI50 (SF-268): 30.6 µM (inactive)
- GI50 (OVCAR-3): 20.3 µM (inactive)
- GI50 (SW-620): 42.1 µM (inactive)
- GI50 (SK-OV-3): 36.7 µM (inactive)

SMILES: COC[C@@H](/N=C/N1CCc2cc(OC)c(OC)cc2[C@@H]1C)C(C)(C)C
- GI50 (SR): > 100 µM (inactive)
- GI50 (HOP-92): > 100 µM (inactive)
- GI50 (ACHN): > 100 µM (inactive)
- GI50 (HL-60): > 100 µM (inactive)
- GI50 (M14): > 100 µM (inactive)
- GI50 (TK-10): > 100 µM (inactive)
- GI50 (Malme-3M): > 100 µM (inactive)
- GI50 (U-251): > 100 µM (inactive)
- GI50 (CCRF-CEM): > 100 µM (inactive)
- GI50 (IGROV-1): > 100 µM (inactive)
- GI50 (SF-539): > 100 µM (inactive)
- GI50 (SK-MEL-28): > 100 µM (inactive)
- GI50 (UACC-62): > 100 µM (inactive)
- GI50 (SF-268): > 100 µM (inactive)
- GI50 (OVCAR-3): > 100 µM (inactive)
- GI50 (SW-620): > 100 µM (inactive)
- GI50 (SK-OV-3): > 100 µM (inactive)

SMILES: CN(C)C1(C#N)CCC2(CC1)OCCO2
- GI50 (SR): > 100 µM (inactive)
- GI50 (HOP-92): > 100 µM (inactive)
- GI50 (OVCAR-5): > 100 µM (inactive)
- GI50 (ACHN): > 100 µM (inactive)
- GI50 (HL-60): > 100 µM (inactive)
- GI50 (M14): > 100 µM (inactive)
- GI50 (TK-10): > 100 µM (inactive)
- GI50 (Malme-3M): > 100 µM (inactive)
- GI50 (U-251): > 100 µM (inactive)
- GI50 (CCRF-CEM): > 100 µM (inactive)
- GI50 (IGROV-1): > 100 µM (inactive)
- GI50 (SF-539): > 100 µM (inactive)
- GI50 (SK-MEL-28): > 100 µM (inactive)
- GI50 (UACC-62): > 100 µM (inactive)
- GI50 (SF-268): > 100 µM (inactive)
- GI50 (OVCAR-3): > 100 µM (inactive)
- GI50 (SW-620): > 100 µM (inactive)
- GI50 (SK-OV-3): > 100 µM (inactive)

SMILES: C=Cc1ccc(C)[n+](C[Si](C)(C)O[Si](C)(C)C[n+]2cc(C=C)ccc2C)c1
- GI50 (SR): > 100 µM (inactive)
- GI50 (HOP-92): > 100 µM (inactive)
- GI50 (OVCAR-5): > 100 µM (inactive)
- GI50 (ACHN): > 100 µM (inactive)
- GI50 (HL-60): > 100 µM (inactive)
- GI50 (M14): > 100 µM (inactive)
- GI50 (TK-10): > 100 µM (inactive)
- GI50 (Malme-3M): > 100 µM (inactive)
- GI50 (U-251): > 100 µM (inactive)
- GI50 (CCRF-CEM): > 100 µM (inactive)
- GI50 (IGROV-1): > 100 µM (inactive)
- GI50 (SF-539): > 100 µM (inactive)
- GI50 (SK-MEL-28): > 100 µM (inactive)
- GI50 (UACC-62): > 100 µM (inactive)
- GI50 (SF-268): > 100 µM (inactive)
- GI50 (OVCAR-3): > 100 µM (inactive)
- GI50 (SW-620): > 100 µM (inactive)
- GI50 (SK-OV-3): > 100 µM (inactive)

SMILES: O=C(NC1CCC[C@H]1OC(=O)c1ccccc1)c1ccccc1 (some centres undefined)
- GI50 (SR): 47.2 µM (inactive)
- GI50 (HOP-92): 25.6 µM (inactive)
- GI50 (OVCAR-5): > 100 µM (inactive)
- GI50 (ACHN): > 10 µM (inactive)
- GI50 (HL-60): 32.2 µM (inactive)
- GI50 (M14): > 100 µM (inactive)
- GI50 (TK-10): > 100 µM (inactive)
- GI50 (Malme-3M): 0.0489 µM (active)
- GI50 (U-251): > 100 µM (inactive)
- GI50 (CCRF-CEM): > 100 µM (inactive)
- GI50 (IGROV-1): > 100 µM (inactive)
- GI50 (SF-539): > 100 µM (inactive)
- GI50 (SK-MEL-28): > 100 µM (inactive)
- GI50 (UACC-62): 50.9 µM (inactive)
- GI50 (SF-268): 86.5 µM (inactive)
- GI50 (OVCAR-3): 16.2 µM (inactive)
- GI50 (SW-620): > 100 µM (inactive)
- GI50 (SK-OV-3): 43.2 µM (inactive)

SMILES: O=C(/C=C/c1cccc([N+](=O)[O-])c1)c1cccnc1
- GI50 (SR): 22.7 µM (inactive)
- GI50 (HOP-92): 74 µM (inactive)
- GI50 (OVCAR-5): > 100 µM (inactive)
- GI50 (ACHN): 71.1 µM (inactive)
- GI50 (HL-60): 20.6 µM (inactive)
- GI50 (M14): 13.7 µM (inactive)
- GI50 (TK-10): > 100 µM (inactive)
- GI50 (Malme-3M): > 89.9 µM (inactive)
- GI50 (U-251): 20.6 µM (inactive)
- GI50 (CCRF-CEM): 24.6 µM (inactive)
- GI50 (IGROV-1): 28.7 µM (inactive)
- GI50 (SF-539): 21.1 µM (inactive)
- GI50 (SK-MEL-28): 23.6 µM (inactive)
- GI50 (UACC-62): 30.2 µM (inactive)
- GI50 (SF-268): 33.3 µM (inactive)
- GI50 (OVCAR-3): 27.5 µM (inactive)
- GI50 (SW-620): 19.4 µM (inactive)
- GI50 (SK-OV-3): > 100 µM (inactive)

SMILES: Nc1c(Cl)ncnc1NCCCCCCCCCCCCNc1ncnc(Cl)c1N
- GI50 (SR): 0.147 µM (active)
- GI50 (HOP-92): 1.32 µM (inactive)
- GI50 (OVCAR-5): < 0.01 µM (active)
- GI50 (HL-60): 0.051 µM (active)
- GI50 (M14): 3.19 µM (inactive)
- GI50 (TK-10): 4.6 µM (inactive)
- GI50 (Malme-3M): 1.94 µM (inactive)
- GI50 (U-251): 0.0857 µM (active)
- GI50 (CCRF-CEM): 0.162 µM (active)
- GI50 (IGROV-1): 1.55 µM (inactive)
- GI50 (SF-539): 3.37 µM (inactive)
- GI50 (SK-MEL-28): 2.14 µM (inactive)
- GI50 (UACC-62): 2.05 µM (inactive)
- GI50 (SF-268): 2.3 µM (inactive)
- GI50 (OVCAR-3): < 0.01 µM (active)
- GI50 (SW-620): 2.69 µM (inactive)
- GI50 (SK-OV-3): 4.18 µM (inactive)

SMILES: Cc1ccccc1N(CCC#N)C1=NN(C(=O)CC(=O)Nc2ccc(Cl)cc2)C(c2ccccc2)C1 (centres undefined)
- GI50 (SR): > 100 µM (inactive)
- GI50 (HOP-92): > 100 µM (inactive)
- GI50 (OVCAR-5): > 100 µM (inactive)
- GI50 (ACHN): > 100 µM (inactive)
- GI50 (HL-60): > 100 µM (inactive)
- GI50 (M14): > 100 µM (inactive)
- GI50 (Malme-3M): > 100 µM (inactive)
- GI50 (U-251): > 100 µM (inactive)
- GI50 (CCRF-CEM): > 100 µM (inactive)
- GI50 (IGROV-1): > 100 µM (inactive)
- GI50 (SF-539): > 100 µM (inactive)
- GI50 (SK-MEL-28): > 100 µM (inactive)
- GI50 (UACC-62): > 100 µM (inactive)
- GI50 (SF-268): > 100 µM (inactive)
- GI50 (OVCAR-3): > 100 µM (inactive)
- GI50 (SW-620): > 100 µM (inactive)
- GI50 (SK-OV-3): > 100 µM (inactive)
